Laboratory results as given in patent US20160309764A1, “FOOD COMPOSITION COMPRISING FERROUS PICOLINATE” (NESTEC S.A., priority 2013, published 2016).
Entries after “also recorded” stand apart in the source; their conditions may differ.

What was measured:
[1] = Colour change of fortified pasteurized yoghurts on storage at 37° C. versus colour immediately after pasteurization (CIELAB); format: physicochemical; conditions: stored at 37° C.; for ΔEab* day 7: day 7, versus colour immediately after pasteurization; for ΔEab* day 30: day 30, versus colour immediately after pasteurization; for ΔEab* day 60: day 60, versus colour immediately after pasteurization; for ΔEab* day 120: day 120, versus colour immediately after pasteurization
[2] = Colour difference of iron fortified strawberry-banana yoghurt after flash pasteurization versus yoghurt with no iron salts (CIELAB); format: physicochemical; conditions: approx. 0.8 mg iron per 100 g, pasteurized at 105° C. for 2 minutes
Experimental: Commercial yoghurt, Nestlé Jogolino™ Strawberry/Banana yoghurt containing 15% banana puree and 10% strawberry puree was iron fortified by the addition of different iron salts to 5 kg yoghurt as reported in the table below. The amounts were chosen to provide approximately 0.8 mg iron per 100 g yoghurt. […] Colour measurements were performed in 1×1 cm polystyrene cuvettes using an X-Rite ColorEye 7000A colorimeter. The colorimeter was set up with a D65 light source, 10 degree observer angle and with specular component included. The colour difference between the yoghurt with no iron salts and the iron fortified yoghurt was measured for each iron salt and expressed as ΔEab* using the CIELAB colour scale.

Row | Molecule | ΔEab* day 7 [1] | ΔEab* day 30 [1] | ΔEab* day 60 [1] | ΔEab* day 120 [1] | ΔEab* [2] | colour change over time ([1]; up to 120 days, compared with the other iron salts) | ΔEab* ([2]; listed as ferrous picolinate) | ΔEab* day 30 ([1]; listed as ferrous sulphate)
1 | O=C([O-])CN(CCN(CC(=O)[O-])CC(=O)[O-])CC(=O)[O-].[Fe+3].[Na+] [NaFeEDTA × H2O, ferric sodium EDTA] | 0.96 | 4.16 | 6.93 | 9.37 | 3.11 | – | – | –
2 | Ferrous picolinate | 0.51 | 2.18 | 4.66 | 8.19 | 1.28 | smaller than the yoghurts fortified by the other iron salts | closer in colour to unfortified yoghurts; also recorded: closest colour to the yoghurt with no added iron | –
3 | O=S(=O)([O-])[O-].[Fe+2] [FeSO4 × H2O, Ferrous sulphate] | 0.78 | 3.27 | 5.91 | 10.34 | 4.74 | – | – | much greater colour changes
